According to patent US10174035B2, “6-morpholinyl-2-pyrazolyl-9H-purine derivatives and their use as PI3K inhibitors” (Daiichi Sankyo Company, Limited, priority 2015, dated 2019):
pIC50: −log10 of the molar value.

Target: recombinant PI3K δ enzyme (Homo sapiens (Human), UniProt O00329)
Assay: In vitro enzyme assay (Kinase-Glo luminescent kinase assay), PI3Kδ
Format: biochemical
Protocol: The Kinase-Glo luminescent kinase assay kit (from Promega) was used to measure kinase activity. In this assay, amount of ATP remaining in solution following a kinase reaction is measured. The effect of compounds on PI3Kδ inhibition was carried out by adding 2.29 μg/ml of recombinant PI3K δ enzyme (Proteros, Germany) to reaction mixture containing assay buffer (50 mM HEPES, pH 7.4, 50 mM NaCl, 0.05% CHAPS) supplemented with 10 mM MgCl2, 5 mM DTT, 60 μM Phosphatidyl inositol bisphosphate (PIP2) and 10 μM ATP in the absence or presence of different concentrations of the compounds in a final volume of 15 μl/well, in a 384 well plate. The reaction mixture was incubated for 2 hours at room temperature. At the end of incubation period the equal volume of Kinase-Glo plus (Promega, V3772), was added per well and the luminescence was measured after incubating for 10 minutes at room temperature in dark. Results were calculated by measuring the luminescence units of test samples to blanks containing no enzyme.
The compounds of the present invention were tested for their selectivity for PI3Kδ over PI3Kα, PI3Kβ and PI3Kγ following the above assay using specific recombinant enzymes (Proteros, Germany) for each kinase. Assay condition of kinase assay (PI3Kα, PI3Kβ, PI3Kγ and PI3Kδ) was as follows. Enzyme: 2.29 μg/mL; ATP: 10 μM; PIP2 substrate: 60 μM and Reaction Time: 2 hours.

Chain of recombinant PI3K δ enzyme (O00329 whole entry, species assumed): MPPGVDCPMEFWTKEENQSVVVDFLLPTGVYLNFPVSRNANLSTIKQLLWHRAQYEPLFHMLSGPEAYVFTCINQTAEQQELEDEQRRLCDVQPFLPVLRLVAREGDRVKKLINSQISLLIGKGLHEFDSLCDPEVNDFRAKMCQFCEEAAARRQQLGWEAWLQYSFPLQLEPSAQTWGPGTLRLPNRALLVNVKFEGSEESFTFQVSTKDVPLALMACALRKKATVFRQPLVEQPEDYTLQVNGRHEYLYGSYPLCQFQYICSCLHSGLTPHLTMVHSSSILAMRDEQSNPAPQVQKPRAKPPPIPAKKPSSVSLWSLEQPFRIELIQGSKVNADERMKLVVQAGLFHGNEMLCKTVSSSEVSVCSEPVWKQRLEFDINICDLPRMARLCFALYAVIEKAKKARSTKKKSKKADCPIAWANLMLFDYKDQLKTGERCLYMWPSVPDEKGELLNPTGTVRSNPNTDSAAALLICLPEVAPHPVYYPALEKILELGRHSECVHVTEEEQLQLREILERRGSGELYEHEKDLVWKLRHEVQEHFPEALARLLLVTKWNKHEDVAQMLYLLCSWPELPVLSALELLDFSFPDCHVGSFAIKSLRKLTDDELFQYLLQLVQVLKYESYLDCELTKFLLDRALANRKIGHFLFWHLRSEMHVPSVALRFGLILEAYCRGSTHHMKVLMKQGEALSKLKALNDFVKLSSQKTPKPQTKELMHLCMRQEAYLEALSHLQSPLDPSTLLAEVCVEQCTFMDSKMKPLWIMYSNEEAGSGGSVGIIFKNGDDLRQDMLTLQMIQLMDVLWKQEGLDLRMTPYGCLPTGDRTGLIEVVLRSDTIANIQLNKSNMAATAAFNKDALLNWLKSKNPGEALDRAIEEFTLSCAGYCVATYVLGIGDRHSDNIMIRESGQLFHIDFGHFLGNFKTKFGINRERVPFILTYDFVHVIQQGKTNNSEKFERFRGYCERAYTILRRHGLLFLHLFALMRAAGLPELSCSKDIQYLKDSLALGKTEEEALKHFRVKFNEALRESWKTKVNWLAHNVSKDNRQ
Chain of recombinant PI3K δ enzyme (P27986 whole entry partner, species assumed): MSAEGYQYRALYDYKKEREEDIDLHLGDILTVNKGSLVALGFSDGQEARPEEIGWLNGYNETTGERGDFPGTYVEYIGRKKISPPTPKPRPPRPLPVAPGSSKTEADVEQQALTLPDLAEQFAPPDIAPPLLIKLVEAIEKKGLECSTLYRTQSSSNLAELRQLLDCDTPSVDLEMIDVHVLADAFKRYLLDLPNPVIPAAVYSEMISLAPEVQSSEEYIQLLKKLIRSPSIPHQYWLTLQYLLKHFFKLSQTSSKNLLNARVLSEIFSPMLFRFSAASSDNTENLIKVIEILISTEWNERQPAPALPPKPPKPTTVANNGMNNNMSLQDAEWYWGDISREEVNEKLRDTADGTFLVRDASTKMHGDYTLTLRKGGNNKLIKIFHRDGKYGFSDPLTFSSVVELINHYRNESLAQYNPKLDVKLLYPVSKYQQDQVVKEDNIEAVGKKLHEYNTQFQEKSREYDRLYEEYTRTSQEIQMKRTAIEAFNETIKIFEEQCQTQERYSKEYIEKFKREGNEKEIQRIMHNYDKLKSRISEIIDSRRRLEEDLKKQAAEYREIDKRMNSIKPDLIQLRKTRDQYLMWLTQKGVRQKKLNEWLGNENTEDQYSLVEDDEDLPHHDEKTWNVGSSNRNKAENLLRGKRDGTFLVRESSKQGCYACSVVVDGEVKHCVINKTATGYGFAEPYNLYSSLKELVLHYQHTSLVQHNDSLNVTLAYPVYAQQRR

| SMILES | pIC50 |
| --- | --- |
| Cn1cc(-c2nc(N3CCOCC3)c3nc(C(=O)N4CCN(c5ncccn5)CC4)[nH]c3n2)cn1 [compound 27, [2-(1-Methyl-1H-pyrazol-4-yl)-6-(morpholin-4-yl)-9H-purin-8-yl][4-(pyrimidin-2-yl)piperazin-1-yl]methanone] | 6.89 |
| Cn1cc(-c2nc3[nH]c(C(=O)N4CCN(C5CCOCC5)CC4)nc3c(N3CCOCC3)c2F)cn1 [compound 81, [6-Fluoro-5-(1-methyl-1H-pyrazol-4-yl)-7-(morpholin-4-yl)-3H-imidazo[4,5-b]pyridin-2-yl][4-(tetrahydro-2H-pyran-4-yl)piperazin-1-yl]methanone] | 8.15 |
| Cn1cc(-c2nc(N3CCOCC3)c3nc(C(=O)N4CCN(C(=O)OC(C)(C)C)CC4)[nH]c3n2)cn1 [compound 43, Tert-butyl 4-{[2-(1-methyl-1H-pyrazol-4-yl)-6-(morpholin-4-yl)-9H-purin-8-yl]carbonyl}piperazine-1-carboxylate] | 7.24 |
| Cc1nn(C)cc1-c1nc(N2CCOCC2)c2nc(C(=O)NCC3(CO)COC3)[nH]c2n1 [compound 71, 2-(1,3-Dimethyl-1H-pyrazol-4-yl)-N-{[3-(hydroxymethyl)oxetan-3-yl]methyl}-6-(morpholin-4-yl)-9H-purine-8-carboxamide] | 7.52 |
| CN1CCN(CCNC(=O)c2nc3c(N4CCOCC4)nc(-c4cnn(C)c4)nc3[nH]2)CC1 [compound 70, N-[2-(4-methylpiperazin-1-yl)ethyl]-2-(1-methyl-1H-pyrazol-4-yl)-6-(morpholin-4-yl)-9H-purine-8-carboxamide] | 7.27 |
| Cn1cc(-c2nc(N3CCOCC3)c3nc(C(=O)NCCCN4CCOCC4)[nH]c3n2)cn1 [compound 63, 2-(1-Methyl-1H-pyrazol-4-yl)-6-(morpholin-4-yl)-N-[3-(morpholin-4-yl)propyl]-9H-purine-8-carboxamide] | 7.68 |
| Cn1cc(-c2nc(N3CCOCC3)c3nc(C(=O)N4CCN(C(=O)c5ncccn5)CC4)[nH]c3n2)cn1 [compound 25, [2-(1-Methyl-1H-pyrazol-4-yl)-6-(morpholin-4-yl)-9H-purin-8-yl][4-(pyrimidin-2-ylcarbonyl)piperazin-1-yl]methanone] | 7.00 |
| CN1CCN(C2CN(C(=O)c3nc4c(N5CCOCC5)cc(-c5cnn(C)c5)nc4[nH]3)C2)CC1=O [Compound No. 129, 1-Methyl-4-(1-{[5-(1-methyl-1H-pyrazol-4-yl)-7-(morpholin-4-yl)-3H-imidazo[4,5-b]pyridin-2-yl]carbonyl}azetidin-3-yl)piperazin-2-one] | 8.00 |
| CC(=O)N1CCN(C(=O)c2nc3c(N4CCOCC4)nc(-c4cnn(C)c4)nc3[nH]2)CC1 [compound 39, 1-(4-{[2-(1-Methyl-1H-pyrazol-4-yl)-6-(morpholin-4-yl)-9H-purin-8-yl]carbonyl}piperazin-1-yl)ethanone] | 7.59 |
| Cn1cc(-c2nc(N3CCOCC3)c3nc(C(=O)N4CCC(NS(C)(=O)=O)CC4)[nH]c3n2)cn1 [compound 28, N-(1-{[2-(1-methyl-1H-pyrazol-4-yl)-6-(morpholin-4-yl)-9H-purin-8-yl]carbonyl}piperidin-4-yl)methanesulfonamide] | 7.16 |
| CN(C(=O)c1nc2c(N3CCOCC3)cc(-c3cnn(C)c3)nc2[nH]1)C1CCN(C2CCOCC2)CC1 [Compound No. 121, N-Methyl-5-(1-methyl-1H-pyrazol-4-yl)-7-(morpholin-4-yl)-N-[1-(tetrahydro-2H-pyran-4-yl)piperidin-4-yl]-3H-imidazo[4,5-b]pyridine-2-carboxamide] | 7.28 |
| O=C(c1nc2c(N3CCOCC3)nc(-c3cn[nH]c3)nc2[nH]1)N1CCC(N2CCOCC2=O)CC1 [compound 74, 4-(1-{[6-(Morpholin-4-yl)-2-(1H-pyrazol-4-yl)-9H-purin-8-yl]carbonyl}piperidin-4-yl)morpholin-3-one] | 8.10 |
| Cc1nn(C)cc1-c1nc(N2CCOCC2)c2nc(C(=O)N3CCC(C(C)(C)O)CC3)[nH]c2n1 [compound 12, [2-(1,3-Dimethyl-1H-pyrazol-4-yl)-6-(morpholin-4-yl)-9H-purin-8-yl][4-(2-hydroxypropan-2-yl)piperidin-1-yl]methanone] | 7.47 |
| CCN(CCN1CCOCC1)C(=O)c1nc2c(N3CCOCC3)nc(-c3cnn(C)c3)nc2[nH]1 [compound 59, N-ethyl-2-(1-methyl-1H-pyrazol-4-yl)-6-(morpholin-4-yl)-N-[2-(morpholin-4-yl)ethyl]-9H-purine-8-carboxamide] | 6.69 |
| Cc1c(-c2nc(N3CCOCC3)c3nc(C(=O)N4CCC(N5CCOCC5)CC4)[nH]c3n2)cnn1C [compound 40, [2-(1,5-Dimethyl-1H-pyrazol-4-yl)-6-(morpholin-4-yl)-9H-purin-8-yl][4-(morpholin-4-yl)piperidin-1-yl]methanone] | 7.55 |
| Cn1cc(-c2nc(N3CCOCC3)c3nc(C(=O)N4CCN(S(C)(=O)=O)CC4)[nH]c3n2)cn1 [compound 34, [2-(1-Methyl-1H-pyrazol-4-yl)-6-(morpholin-4-yl)-9H-purin-8-yl][4-(methylsulfonyl)piperazin-1-yl]methanone] | 6.52 |
| Cn1cc(-c2nc(N3CCOCC3)c3nc(C(=O)N4CCN(C(=O)Cc5cnccn5)CC4)[nH]c3n2)cn1 [compound 29, 1-(4-{[2-(1-Methyl-1H-pyrazol-4-yl)-6-(morpholin-4-yl)-9H-purin-8-yl]carbonyl}piperazin-1-yl)-2-(pyrazin-2-yl)ethanone] | 6.85 |

Second part, the molecule after the results:

| pIC50 | SMILES |
| --- | --- |
| 7.39 | CN(C)C1CCN(C(=O)c2nc3c(N4CCOCC4)cc(-c4cnn(C)c4)nc3[nH]2)CC1 [compound 101, [4-(Dimethylamino)piperidin-1-yl][5-(1-methyl-1H-pyrazol-4-yl)-7-(morpholin-4-yl)-3H-imidazo[4,5-b]pyridin-2-yl]methanone] |
| 7.04 | Cc1nn(C)cc1-c1nc2c(nc(C(=O)N3CCC(N4CCOCC4)CC3)n2CC2CC2)c(N2CCOCC2)c1F [compound 83, [3-(Cyclopropylmethyl)-5-(1,3-dimethyl-1H-pyrazol-4-yl)-6-fluoro-7-(morpholin-4-yl)-3H-imidazo[4,5-b]pyridin-2-yl][4-(morpholin-4-yl)piperidin-1-yl]methanone] |
| 6.62 | CN(C(=O)c1nc2c(N3CCOCC3)nc(-c3cnn(C)c3)nc2[nH]1)C1CCN(C2COC2)CC1 [compound 132, N-Methyl-2-(1-methyl-1H-pyrazol-4-yl)-6-(morpholin-4-yl)-N-[1-(oxetan-3-yl)piperidin-4-yl]-9H-purine-8-carboxamide] |
| 7.60 | Cn1cc(-c2nc3[nH]c(C(=O)N4CC(N5CCOCC5)C4)nc3c(N3CCOCC3)c2F)cn1 [compound 126, [6-Fluoro-5-(1-methyl-1H-pyrazol-4-yl)-7-(morpholin-4-yl)-3H-imidazo[4,5-b]pyridin-2-yl][3-(morpholin-4-yl)azetidin-1-yl]methanone] |
| 8.52 | O=C(c1nc2c(N3CCOCC3)cc(-c3c[nH]nc3C(F)(F)F)nc2[nH]1)N1CCC(N2CCOCC2)CC1 [compound 134, [4-(Morpholin-4-yl)piperidin-1-yl]{7-(morpholin-4-yl)-5-[3-(trifluoromethyl)-1H-pyrazol-4-yl]-3H-imidazo[4,5-b]pyridin-2-yl}methanone] |
| 7.19 | CN(C)C1CCN(C(=O)c2nc3c(N4CCOCC4)cc(-c4cnn(C)c4)nc3n2C)CC1 [compound 100, [4-(Dimethylamino)piperidin-1-yl][3-methyl-5-(1-methyl-1H-pyrazol-4-yl)-7-(morpholin-4-yl)-3H-imidazo[4,5-b]pyridin-2-yl]methanone] |
| 7.34 | Cc1nn(C)cc1-c1nc2[nH]c(C(=O)N3CCC(N4CCOCC4)CC3)nc2c(N2CCOCC2)c1C [compound 89, [5-(1,3-Dimethyl-1H-pyrazol-4-yl)-6-methyl-7-(morpholin-4-yl)-3H-imidazo[4,5-b]pyridin-2-yl][4-(morpholin-4-yl)piperidin-1-yl]methanone] |
| 7.52 | Cn1cc(-c2cc(N3CCOCC3)c3nc(C(=O)N4CCC(N5CCOCC5)CC4)n(C)c3n2)cn1 [compound 106, [3-Methyl-5-(1-methyl-1-pyrazol-4-yl)-7-(morpholin-4-yl)-3H-imidazo[4,5-b]pyridin-2-yl][4-(morpholin-4-yl)piperidin-1-yl]methanone] |
| 6.73 | Cc1c(-c2cnn(C)c2)nc2[nH]c(C(=O)N3CCC(N4CCOCC4)CC3)nc2c1N1CCOCC1 [compound 90, [6-Methyl-5-(1-methyl-1H-pyrazol-4-yl)-7-(morpholin-4-yl)-3H-imidazo[4,5-b]pyridin-2-yl][4-(morpholin-4-yl)piperidin-1-yl]methanone] |
| 7.37 | O=C(c1nc2c(N3CCOCC3)c(F)c(-c3cn[nH]c3)nc2[nH]1)N1CCC(N2CCOCC2)CC1 [compound 125, [6-Fluoro-7-(morpholin-4-yl)-5-(1H-pyrazol-4-yl)-3H-imidazo[4,5-b]pyridin-2-yl][4-(morpholin-4-yl)piperidin-1-yl]methanone] |
| 6.74 | Cn1cc(-c2nc3c(nc(C(=O)N4CCC(N5CCOCC5)CC4)n3C)c(N3CCOCC3)c2F)cn1 [compound 111, [6-Fluoro-3-methyl-5-(1-methyl-1-pyrazol-4-yl)-7-(morpholin-4-yl)-3H-imidazo[4,5-b]pyridin-2-yl][4-(morpholin-4-yl)piperidin-1-yl]methanone] |
